From patent publication US20090286785A1, “Pyrimidine Derivatives” (Bayer Pharmaceuticals Corporation, priority 2005, published 2009)
Like-named read-outs stand apart in the source and are kept apart here.

System: HCT116 cells
Experiment: HCT116 cytotoxic activity assay (Alamar Blue, 72 h)
Conditions: Homo sapiens, HCT-116, 72 h
[1] = read-out: IC50 in the HCT116 cytotoxic activity assay

Procedure: Human tumor cells, e.g., HCT116 cells, are seeded in a 96-well plate at 3.0×10^3 cells/well and grown in 100 μl of RPMI complete media (Invitrogen Corporation, Grand Island, N.Y.) containing 10% fetal bovine serum (Hyclone, Logan, Utah) and 10 mM HEPES and at 37° C. for 16 h in an incubator with 5% CO2. To each well, 50 μl of additional growth media containing 20 μM to 60 nM concentrations of compound with 0.2% DMSO is added. Cells are grown for another 72 h at 37° C. 20 μl of Alamar Blue (Trek Diagnostic Systems, Inc., Cleveland, Ohio) reagent is added to each well and incubated for 4 h at 37° C. Plates are read in a SpectraMax Gemini (Molecular Devices, CA) with 544 nm excitation and 590 nm emission wavelength. IC50 values are determined by linear regression analysis of log drug concentration versus percent inhibition.

## Nc1nc(Nc2ccc(Oc3ccnc(C(F)(F)F)c3)cc2)cc(-c2ccc3[nH]ccc3c2)n1 [Example 12, 6-(1H-indol-5-yl)-N^4-(4-{[2-(trifluoromethyl)pyridin-4-yl]oxy}phenyl)pyrimidine-2,4-diamine]
[1]
  IC50: ≤ 500 nM

## Nc1nc(Nc2ccc(Oc3ccnc(C(F)(F)F)c3)cc2)cc(-c2ccc3[nH]cc(CN4CCOCC4)c3c2)n1 [Example 15, 6-[3-(morpholin-4-ylmethyl)-1H-indol-5-yl]-N^4-(4-{[2-(trifluoromethyl)pyridin-4-yl]oxy}phenyl)pyrimidine-2,4-diamine]
[1]
  IC50: > 500 nM
read-out: IC50 in the HCT116 cytotoxic activity assay (upper bound of bin)
  IC50: ≤ 5000 nM
